System: Caco-2
Assay: Apparent permeability across Caco-2 cells
Type: functional, cell-based
Details: Homo sapiens

Row | Compound | Papp [×10⁻⁶ cm/s]
1 | C[C@@H](NC(=O)CCC(=O)OCCNC(=S)Nc1ccc(-c2c3ccc(=O)cc-3oc3cc(O)ccc23)c(C(=O)O)c1)C(=O)NCCCC(=O)N[C@H](CCCNC(=N)N)C(=O)N[C@H](CCCNC(=N)N)C(=O)N[C@H](CCCNC(=N)N)C(=O)N[C@H](CCCNC(=N)N)C(=O)N[C@H](CCCNC(=N)N)C(=O)N[C@H](CCCNC(=N)N)C(=O)N[C@H](CCCNC(=N)N)C(N)=O | 0.41
2 | N=C(N)NCCC[C@@H](NC(=O)[C@@H](CCCNC(=N)N)NC(=O)[C@@H](CCCNC(=N)N)NC(=O)[C@@H](CCCNC(=N)N)NC(=O)[C@@H](CCCNC(=N)N)NC(=O)[C@@H](CCCNC(=N)N)NC(=O)[C@@H](CCCNC(=N)N)NC(=O)CCCNC(=O)[C@@H](CN)NC(=O)CCC(=O)OCCNC(=S)Nc1ccc(-c2c3ccc(=O)cc-3oc3cc(O)ccc23)c(C(=O)O)c1)C(N)=O | 0.75
3 | O=C(O)c1cc(NC(=S)NCCO)ccc1-c1c2ccc(=O)cc-2oc2cc(O)ccc12 | 0.26
4 | CC(N)[C@@H](NC(=O)CCC(=O)OCCNC(=S)Nc1ccc(-c2c3ccc(=O)cc-3oc3cc(O)ccc23)c(C(=O)O)c1)C(=O)NCCCC(=O)N[C@H](CCCNC(=N)N)C(=O)N[C@H](CCCNC(=N)N)C(=O)N[C@H](CCCNC(=N)N)C(=O)N[C@H](CCCNC(=N)N)C(=O)N[C@H](CCCNC(=N)N)C(=O)N[C@H](CCCNC(=N)N)C(=O)N[C@H](CCCNC(=N)N)C(N)=O (some centres undefined) | 0.48
